Converted amounts (≈) assume the structure as drawn. Values belong to the molecule of their own block, whether it stands above or below them.
Key:
Format in all cases: functional
[1] = tested on: Staphylococcus aureus; assay: Antimicrobial activity against Methicillin-resistant Staphylococcus aureus CCARM 3506 assessed as bacterial growth inhibition incubated for 24 hrs by ELISA assay
[2] = tested on: Staphylococcus aureus; assay: Antimicrobial activity against Methicillin-resistant Staphylococcus aureus ATCC 43300 assessed as bacterial growth inhibition incubated for 24 hrs by microdilution method; conditions: ATCC43300
[3] = tested on: Staphylococcus aureus; assay: Antimicrobial activity against Methicillin-resistant Staphylococcus aureus assessed as bacterial growth inhibition
[4] = tested on: Staphylococcus aureus; assay: Antimicrobial activity against Methicillin-resistant Staphylococcus aureus ATCC 43300 assessed as bacterial growth inhibition by microdilution method
[5] = tested on: Staphylococcus aureus; assay: Antimicrobial activity against vancomycin intermediate-resistant Staphylococcus aureus assessed as bacterial growth inhibition incubated for 24 hrs by microdilution method
[6] = tested on: Staphylococcus aureus; assay: Antibiofilm activity against Methicillin-resistant Staphylococcus aureus USA 300 relative to control
[7] = tested on: Staphylococcus aureus; assay: Antimicrobial activity against Methicillin sensitive Staphylococcus aureus assessed as bacterial growth inhibition incubated for 18 hrs
[8] = tested on: Staphylococcus aureus; assay: Antimicrobial activity against Methicillin-resistant Staphylococcus aureus ATCC 33599 assessed as bacterial growth inhibition
[9] = tested on: Staphylococcus aureus; assay: Antimicrobial activity against Methicillin-resistant Staphylococcus aureus assessed as bacterial growth inhibition incubated for 24 to 48 hrs by microdilution method; conditions: time 24-48 hrs
[10] = tested on: Staphylococcus aureus; assay: Antimicrobial activity against Staphylococcus aureus MTCC 442 assessed as bacterial growth inhibition incubated for 24 to 48 hrs; conditions: time 24-48 hrs
[11] = tested on: Staphylococcus aureus; assay: Antimicrobial activity against Staphylococcus aureus MTCC 96 assessed as bacterial growth inhibition incubated for 24 to 48 hrs; conditions: time 24-48 hrs

SMILES: Cc1ccc(Oc2c(C3N=C(N)NC(NCCc4ccccc4)=N3)c(C)nn2-c2ccc(Cl)cc2Cl)cc1 (stereo not given)
MIC [1]: 0.5 µg/mL (≈ 0.912 µM)

SMILES: Cc1nn(-c2ccc(Br)cc2)c2c1C(C(=O)O)CC=C(C(=O)O)N2 (stereo not given)
MIC [2]: > 500 µg/mL

SMILES: CC1(C)S[C@@H]2[C@H](NC(=O)Cc3ccccc3)C(=O)N2[C@H]1C(=O)O [PENICILLIN G]
MIC [3]: 0.06 µg/mL (≈ 0.179 µM)

SMILES: O=C1S/C(=C\c2cn(-c3ccccc3)nc2-c2ccc([N+](=O)[O-])cc2)C(=O)N1CCCn1ccc2ccccc21
MIC [4]: 12.5 µg/mL

SMILES: Cc1cc(O)c(C(=O)c2cc(C(F)(F)F)n[nH]2)cc1Cl
MIC [5]: < 0.125 µg/mL

SMILES: O=C1S/C(=C\c2cn(-c3ccccc3)nc2-c2cccc([N+](=O)[O-])c2)C(=O)N1CCCn1ccc2ccccc21
MIC [4]: 50 µg/mL

SMILES: Cc1nn(-c2ccc(C#N)cc2)c2c1C(C(=O)O)CC=C(C(=O)O)N2 (stereo not given)
MIC [2]: > 500 µg/mL

SMILES: C/C(=N/NC(=N)N)c1cnn(-c2ccc(C#Cc3ccccc3)cc2)c1C
Activity [6]: 20%

SMILES: COc1c(N2CCNC(C)C2)c(F)cc2c(=O)c(C(=O)O)cn(C3CC3)c12 (stereo not given) [GATIFLOXACIN]
MIC [7]: 0.06 µg/mL (≈ 0.16 µM)

SMILES: O=C(O)c1ccc(-n2cc(/C=N/c3ccc(Cl)cc3Cl)c(-c3ccc4ccccc4c3)n2)cc1
MBC [8]: 6.25 µg/mL (≈ 12.9 µM)
MIC [8]: 0.78 µg/mL (≈ 1.6 µM)

SMILES: Cc1nn(-c2ccc(Cl)cc2Cl)c(Oc2ccc(Br)cc2)c1C1N=C(N)NC(NCCc2ccccc2)=N1 (stereo not given)
MIC [1]: 0.5 µg/mL (≈ 0.815 µM)

SMILES: CC(=O)Nc1c(C(N)=O)cnn1-c1ccc([N+](=O)[O-])cc1[N+](=O)[O-]
MIC [9]: 99.4 µg/mL (≈ 297 µM)

SMILES: Cc1nn(-c2ccc(Cl)cc2Cl)c(Oc2ccc(Cl)cc2)c1C1N=C(N)NC(NCCc2ccccc2)=N1 (stereo not given)
MIC [1]: 0.5 µg/mL (≈ 0.879 µM)

SMILES: Cc1nn(-c2ccc(Cl)cc2Cl)c(Oc2cccc(Br)c2)c1C1N=C(N)NC(NCCc2ccccc2)=N1 (stereo not given)
MIC [1]: 0.5 µg/mL (≈ 0.815 µM)

MIC [10]: > 50 µg/mL
MIC [11]: > 50 µg/mL
SMILES: O=C(/C=C/c1cccc([N+](=O)[O-])c1)N1N=C(c2ccncc2)OC1c1cn(-c2ccccc2)nc1-c1ccc(F)cc1 (stereo not given)

SMILES: Cc1ccc(C(=O)Nc2c(C(N)=O)cnn2-c2ccc([N+](=O)[O-])cc2[N+](=O)[O-])cc1
MIC [9]: 42 µg/mL (≈ 102 µM)

SMILES: CCCn1ncc2c3c(C#N)c4ccc(Br)cc4nc3ccc21
MIC [3]: 1 µg/mL (≈ 2.74 µM)

SMILES: Cc1nn(-c2ccc(Cl)cc2Cl)c(Oc2cccc(Cl)c2)c1C1N=C(N)NC(NCCc2ccccc2)=N1 (stereo not given)
MIC [1]: 0.5 µg/mL (≈ 0.879 µM)

SMILES: O=C(/C=C/c1ccc(F)cc1)N1N=C(c2ccncc2)OC1c1cn(-c2ccccc2)nc1-c1ccc(F)cc1 (stereo not given)
MIC [10]: 6.25 µg/mL (≈ 11.7 µM)
MIC [11]: 6.25 µg/mL (≈ 11.7 µM)

SMILES: O=C(c1cc(C(F)(F)F)n[nH]1)c1cc(Cl)cc(Cl)c1O
MIC [5]: < 0.125 µg/mL

SMILES: O=C(c1cc(C(F)(F)F)n[nH]1)c1ccc(Cl)cc1O
MIC [5]: < 0.125 µg/mL

SMILES: C/C(=N/NC1=NCCN1)c1cnn(-c2ccc(C#CC(C)(C)C)cc2)c1C
Activity [6]: 62%

SMILES: CC1(C)S[C@@H]2[C@H](NC(=O)[C@H](N)c3ccccc3)C(=O)N2[C@H]1C(=O)O [AMPICILLIN]
MIC [3]: 62 µg/mL (≈ 177 µM)

SMILES: CC[C@H]1OC(=O)[C@H](C)[C@@H](O[C@H]2C[C@@](C)(OC)[C@@H](O)[C@H](C)O2)[C@H](C)[C@@H](O[C@@H]2O[C@H](C)C[C@H](N(C)C)[C@H]2O)[C@](C)(O)C[C@@H](C)C(=O)[C@H](C)[C@@H](O)[C@]1(C)O [ERYTHROMYCIN]
MIC [9]: 32 µg/mL (≈ 43.6 µM)

SMILES: NC(=O)c1cnn(-c2ccc([N+](=O)[O-])cc2[N+](=O)[O-])c1NC(=O)c1ccc(Br)cc1
MIC [9]: 29.4 µg/mL (≈ 61.9 µM)

SMILES: Cc1cc(NS(=O)(=O)c2ccc(N)cc2)no1 [SULFAMETHOXAZOLE]
MIC [3]: 16 µg/mL (≈ 63.2 µM)

SMILES: Cc1nn(-c2ccc(Cl)cc2Cl)c(Oc2ccc3ccccc3c2)c1C1N=C(N)NC(NCCc2ccccc2)=N1 (stereo not given)
MIC [1]: 0.5 µg/mL (≈ 0.855 µM)

SMILES: COc1cc(Cc2cnc(N)nc2N)cc(OC)c1OC [TRIMETHOPRIM]
MIC [1]: 4 µg/mL (≈ 13.8 µM)

SMILES: O=C1CN(c2nnc(-c3cccc(Br)c3)s2)C(c2cn(-c3ccccc3)nc2-c2cccc([N+](=O)[O-])c2)S1 (stereo not given)
MBC [3]: 156 µg/mL (≈ 258 µM)

SMILES: O=C(/C=C/c1cccc(F)c1)N1N=C(c2ccncc2)OC1c1cn(-c2ccccc2)nc1-c1ccc(F)cc1 (stereo not given)
MIC [10]: 25 µg/mL (≈ 46.9 µM)
MIC [11]: 25 µg/mL (≈ 46.9 µM)

SMILES: CCCn1ncc2c3c(C#N)c4ccccc4nc3ccc21
MIC [3]: 3 µg/mL (≈ 10.5 µM)

SMILES: CCCCn1ncc2c3c(C#N)c4ccccc4nc3ccc21
MIC [3]: 2 µg/mL (≈ 6.66 µM)

SMILES: O=C(N[C@H](CO)[C@H](O)c1ccc([N+](=O)[O-])cc1)C(Cl)Cl [CHLORAMPHENICOL]
MIC [10]: 50 µg/mL (≈ 155 µM)
MIC [4]: 50 µg/mL
MIC [11]: 50 µg/mL (≈ 155 µM)

SMILES: NC(=O)c1cnn(-c2ccc([N+](=O)[O-])cc2[N+](=O)[O-])c1NC(=O)c1cccc(Cl)c1
MIC [9]: 45.3 µg/mL (≈ 105 µM)

— ChEMBL document CHEMBL5241058, “Pyrazole-based analogs as potential antibacterial agents against methicillin-resistance staphylococcus aureus (MRSA) and its SAR elucidation” (Eur J Med Chem, 2021)
